Experimental data taken from US10196357B2, “Biaryl compositions and methods for modulating a kinase cascade” (Athenex, Inc., priority 2007, dated 2019).

Key:
[1] = biological target: isolated Src (Homo sapiens, UniProt P12931); assay: titration against isolated Src; assay type: biochemical; settings: titration data
[2] = system: SKOV-3 (Ovarian); assay: growth inhibition (BrdU), SKOV-3; assay type: cell-based, Human; settings: SKOV-3 (Ovarian) cells
Source text: Growth Inhibition. […] T1 values≤T0 values were designated as T, cytotoxicity.

[3] = system: Src-Y416 autophosphorylation; assay: intracellular phosphorylation, Src autophosphorylation; assay type: cell-based; settings: HT29 and c-Src527F/NIH-3T3 cells, 0.2×-25× GI50
Description: (§1) HT29 (colon cancer) and c-Src527F/NIH-3T3 (Src transformed) cell lines were treated with KX2-391 or with AstraZeneca's ATP competitive Src inhibitor AZ28. AZ28 serves as a positive comparator to show what a validated Src inhibitor should do in these assays. After treatment with compound, cells were lysed, subjected to PAGE and probed with a battery of antibodies. […] In addition, off-target protein phosphorylation was also investigated. Further, induction of apoptosis was evaluated via Caspase 3 cleavage. Multiple doses of each compound were tested because the trends in response to increasing drug concentration are the most reliable indicator of activity.
(§2) The same range of multiples of the GI50 for AZ28 in these two cell lines was run as a comparison.

[4] = system: JAK1 Y1022/1023; assay: whole cell phosphorylation, JAK1; assay type: cell-based; settings: whole cells
[5] = system: Lck Y405; assay: whole cell phosphorylation, Lck; assay type: cell-based; settings: whole cells
[6] = system: PDGF receptor tyrosine kinase Y572/574; assay: PDGF receptor autophosphorylation in cells; assay type: cell-based; settings: c-Src527F/NIH-3T3 cells
Description: as §1, §2
This is thought not to be a direct Src substrate in cells.

[7] = system: GL261; assay: brain tumor cell growth inhibition, GL261; assay type: cell-based; settings: GL261, mouse glioblastoma; read-out: IC50 (title: GI50)
[8] = system: FAK Y397; assay: FAK autophosphorylation in cells; assay type: cell-based; settings: c-Src527F/NIH3T3 cells
Description: as §1, §2
FAK Y397 is mainly a FAK autophosphorylation site and only a poor Src transphorylation site. AZ28 is […] a potent FAK inhibitor (see isolated enzyme data in Table 8). However, no inhibition of FAK autophosphorylation in c-Src527F/NIH3T3 cells is seen with KX-391.

[9] = system: ZAP70 Y319; assay: whole cell phosphorylation, ZAP70; assay type: cell-based; settings: whole cells

Chain of isolated Src (P12931 whole entry): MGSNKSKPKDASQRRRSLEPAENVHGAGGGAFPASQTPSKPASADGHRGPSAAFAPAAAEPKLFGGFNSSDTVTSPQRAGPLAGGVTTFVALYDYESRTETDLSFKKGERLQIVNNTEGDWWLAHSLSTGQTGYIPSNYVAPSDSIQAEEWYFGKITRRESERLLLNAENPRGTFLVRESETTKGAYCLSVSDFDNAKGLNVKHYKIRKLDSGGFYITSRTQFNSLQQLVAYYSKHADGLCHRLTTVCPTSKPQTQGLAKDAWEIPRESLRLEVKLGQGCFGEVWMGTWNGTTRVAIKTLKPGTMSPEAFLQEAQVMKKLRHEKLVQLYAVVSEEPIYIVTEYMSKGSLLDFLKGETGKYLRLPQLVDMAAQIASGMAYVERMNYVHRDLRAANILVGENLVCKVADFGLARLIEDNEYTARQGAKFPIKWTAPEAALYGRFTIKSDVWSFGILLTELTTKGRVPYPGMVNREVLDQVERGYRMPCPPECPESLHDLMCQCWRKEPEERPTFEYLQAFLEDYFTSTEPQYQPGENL

O=C(Cc1ccc(-c2ccc(OCCN3CCOCC3)cc2)cn1)NCc1ccccc1 [KXO1]
IC50 [1]: 46000 nM
GI50 [2]: 9.8 nM
Src-Y416 autophosphorylation [3]: potent inhibitor
phosphorylation of JAK1 Y1022/1023 [4]: not inhibited
phosphorylation of Lck Y405 [5]: not inhibited
PDGF receptor Y572/574 autophosphorylation [6]: not inhibited
IC50 [7]: 13.7 nM
FAK Y397 autophosphorylation [8]: no inhibition
phosphorylation of ZAP70 Y319 [9]: not inhibited
